In paper PMC7948948 (The Journal of Biological Chemistry, 2021):
Converted amounts (≈) assume the structure as drawn. “And” between values parts separate entries of the source, which are not always exact repeats. Identical values can stand only once. “Also recorded” adds a separate entry of the source. Like-named read-outs stand apart in the source and are kept apart here.

What was measured:
Mtb PheRS [1] = target: T1, Mtb PheRS (Mycobacterium tuberculosis, UniProt P9WFU3); conditions: for Mode of inhibition with regard to Phe / Mode of inhibition with regard to ATP: Lineweaver-Burk plot; for Mode of inhibition with regard to ATP: no sulfate added
Mtb PheRS [2] = target: T1, Mtb PheRS; conditions: for Km: read-out: Km, aminoacylation assay
Mtb PheRS [3] = target: T1, Mtb PheRS; test: ATP consumption assay (Kinase-Glo), Mtb PheRS; format: biochemical
Mtb PheRS [4] = target: T1, Mtb PheRS; test: biochemical; conditions: read-out: IC50, AMP Glo, Mtb PheRS
Mtb PheRS [5] = target: T1, Mtb PheRS; test: biochemical; conditions: read-out: IC50, Malachite Green, Mtb PheRS
hFARS1 = target: T2, hFARS1 (Homo sapiens, UniProt Q9Y285); test: biochemical; conditions: for IC50: 50 nM enzyme, 2 μM ATP, 20 μM L-Phe, 1 mg/ml yeast total tRNA, 1 h, read-out: IC50, Kinase Glo, hFARS1
T2 sequence (Q9Y285 1-508): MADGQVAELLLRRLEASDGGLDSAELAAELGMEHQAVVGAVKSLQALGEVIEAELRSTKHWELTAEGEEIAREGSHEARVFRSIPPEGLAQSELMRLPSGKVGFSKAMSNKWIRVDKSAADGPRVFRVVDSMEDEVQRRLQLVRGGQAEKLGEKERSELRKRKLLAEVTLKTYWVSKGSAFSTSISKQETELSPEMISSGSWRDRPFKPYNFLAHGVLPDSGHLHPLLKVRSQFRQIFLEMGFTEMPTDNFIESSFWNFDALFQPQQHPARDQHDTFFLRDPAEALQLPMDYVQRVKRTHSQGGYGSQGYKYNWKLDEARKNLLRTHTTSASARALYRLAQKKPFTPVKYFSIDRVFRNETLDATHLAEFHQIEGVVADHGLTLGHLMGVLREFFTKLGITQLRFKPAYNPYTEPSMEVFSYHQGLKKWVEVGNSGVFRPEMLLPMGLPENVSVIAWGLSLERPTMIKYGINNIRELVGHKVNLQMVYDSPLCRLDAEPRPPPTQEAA
T2 sequence (Q9NSD9 1-589 partner): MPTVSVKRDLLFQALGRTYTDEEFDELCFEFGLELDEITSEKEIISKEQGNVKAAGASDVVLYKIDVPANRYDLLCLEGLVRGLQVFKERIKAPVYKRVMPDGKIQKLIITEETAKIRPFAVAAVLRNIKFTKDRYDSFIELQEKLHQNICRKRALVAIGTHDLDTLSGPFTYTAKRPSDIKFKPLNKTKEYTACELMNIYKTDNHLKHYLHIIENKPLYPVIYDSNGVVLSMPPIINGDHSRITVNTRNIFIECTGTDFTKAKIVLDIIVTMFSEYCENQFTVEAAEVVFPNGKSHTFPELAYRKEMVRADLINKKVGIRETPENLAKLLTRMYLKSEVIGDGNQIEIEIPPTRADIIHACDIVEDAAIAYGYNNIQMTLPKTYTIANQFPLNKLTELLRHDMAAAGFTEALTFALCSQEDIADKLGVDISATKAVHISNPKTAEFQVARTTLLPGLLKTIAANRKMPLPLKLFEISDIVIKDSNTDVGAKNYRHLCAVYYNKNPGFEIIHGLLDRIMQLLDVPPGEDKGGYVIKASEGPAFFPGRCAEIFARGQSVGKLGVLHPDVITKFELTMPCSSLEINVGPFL

hFARS2 = target: T3, hFARS2 (Homo sapiens, UniProt O95363); test: biochemical; conditions: for IC50: E. coli total tRNA 0.5 mg/ml, 1 h, read-out: IC50, Kinase Glo, hFARS2
T3 sequence (O95363 38-451 limits assumed): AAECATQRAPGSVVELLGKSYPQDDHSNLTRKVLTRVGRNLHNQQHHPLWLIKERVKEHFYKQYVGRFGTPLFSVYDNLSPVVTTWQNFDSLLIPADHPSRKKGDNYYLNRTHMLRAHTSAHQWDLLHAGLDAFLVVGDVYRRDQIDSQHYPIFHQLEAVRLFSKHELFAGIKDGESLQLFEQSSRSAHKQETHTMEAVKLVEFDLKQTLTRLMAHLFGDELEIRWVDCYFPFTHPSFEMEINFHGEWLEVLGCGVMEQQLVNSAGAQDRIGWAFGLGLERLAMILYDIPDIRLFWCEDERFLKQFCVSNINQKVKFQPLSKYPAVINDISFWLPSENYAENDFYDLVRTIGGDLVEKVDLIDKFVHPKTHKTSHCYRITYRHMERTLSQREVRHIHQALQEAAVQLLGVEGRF

Mtb H37Rv = test: MIC by microplate alamarBlue assay; format: cell-based, Mycobacterium tuberculosis; conditions: for MIC: Mycobacterium tuberculosis, H37RV, n = 3, read-out: MIC against Mtb H37Rv
Mtb PheRS [6] = target: T1, Mtb PheRS; test: biochemical
WT H37Rv = test: microbe, parasite or virus in culture; format: cell-based; conditions: Mycobacterium tuberculosis, 264 h, absorbance at 580 nm, 11 days, Gompertz fit
in vitro [7] = format: cell-based; conditions: human
Procedure: (§1) HEK293T, Vero E6, and HepG2 cells were cultured in Dulbecco's modified Eagle's medium plus 10% fetal bovine serum and 1% penicillin/streptomycin at 37 °C with 5% CO2. Plates of 96 wells were plated with 100 μl 1 × 10^5 cells/ml per well and incubated for 24 h before adding compound in serial dilutions. After another 48 h, 40 μl reagents of CellTiter-Glo cell viability assay (Promega) was added, and the plates were shaken at 400 rpm for 10 min in the dark. Luminescence was recorded with plate reader. The data were analyzed with GraphPad Prism 9.
(§2) HepG2 (A and B) is an immortal cell line derived from human liver cells. HEK-293T (C and
(§3) D) is a human embryonic kidney 293 cell line. Vero E6 is a cell line derived from African
(§4) green monkey kidney epithelial cells. […]

in vitro [8] = format: cell-based, human; conditions: human
Procedure: as §1, §2, §3, §4

HEK-293T = test: in vitro; format: cell-based, human; conditions: 48 h
Procedure: as §1, §2, §3, §4

[9] = Cytotoxicity, CellTiter-Glo, Vero E6; format: cell-based; conditions: African green monkey, Vero E6 cells
Procedure: as §1, §2, §3, §4

in vitro [10] = format: cell-based
Procedure: as §1

luciferase = test: Counter-screen of Kinase-Glo coupled reaction, Mtb PheRS omitted; format: biochemical; conditions: concentrations up to 20 μM
PPase, PNPase = test: Counter-screen of PPi production coupled reaction, Mtb PheRS omitted; format: biochemical; conditions: concentrations up to 20 μM
HepG2 = test: in vitro; format: cell-based; conditions: human, 48 h
Procedure: as §1, §2, §3, §4

human FAAH = conditions: cited from earlier work
N[C@@H](Cc1ccccc1)C(=O)O = test: purified protein, by the assay type

T1 sequence (P9WFU3 whole entry): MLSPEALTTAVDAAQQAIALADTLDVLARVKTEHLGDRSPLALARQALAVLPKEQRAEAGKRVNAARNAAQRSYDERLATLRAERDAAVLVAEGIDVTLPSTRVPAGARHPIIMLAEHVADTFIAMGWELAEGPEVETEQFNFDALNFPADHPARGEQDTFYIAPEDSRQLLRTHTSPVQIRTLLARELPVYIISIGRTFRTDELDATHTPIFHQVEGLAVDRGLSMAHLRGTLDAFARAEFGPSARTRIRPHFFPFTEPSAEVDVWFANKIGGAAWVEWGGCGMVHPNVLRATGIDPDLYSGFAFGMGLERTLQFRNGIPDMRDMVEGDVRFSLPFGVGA
T1 sequence (P9WFU1 whole entry, further chain): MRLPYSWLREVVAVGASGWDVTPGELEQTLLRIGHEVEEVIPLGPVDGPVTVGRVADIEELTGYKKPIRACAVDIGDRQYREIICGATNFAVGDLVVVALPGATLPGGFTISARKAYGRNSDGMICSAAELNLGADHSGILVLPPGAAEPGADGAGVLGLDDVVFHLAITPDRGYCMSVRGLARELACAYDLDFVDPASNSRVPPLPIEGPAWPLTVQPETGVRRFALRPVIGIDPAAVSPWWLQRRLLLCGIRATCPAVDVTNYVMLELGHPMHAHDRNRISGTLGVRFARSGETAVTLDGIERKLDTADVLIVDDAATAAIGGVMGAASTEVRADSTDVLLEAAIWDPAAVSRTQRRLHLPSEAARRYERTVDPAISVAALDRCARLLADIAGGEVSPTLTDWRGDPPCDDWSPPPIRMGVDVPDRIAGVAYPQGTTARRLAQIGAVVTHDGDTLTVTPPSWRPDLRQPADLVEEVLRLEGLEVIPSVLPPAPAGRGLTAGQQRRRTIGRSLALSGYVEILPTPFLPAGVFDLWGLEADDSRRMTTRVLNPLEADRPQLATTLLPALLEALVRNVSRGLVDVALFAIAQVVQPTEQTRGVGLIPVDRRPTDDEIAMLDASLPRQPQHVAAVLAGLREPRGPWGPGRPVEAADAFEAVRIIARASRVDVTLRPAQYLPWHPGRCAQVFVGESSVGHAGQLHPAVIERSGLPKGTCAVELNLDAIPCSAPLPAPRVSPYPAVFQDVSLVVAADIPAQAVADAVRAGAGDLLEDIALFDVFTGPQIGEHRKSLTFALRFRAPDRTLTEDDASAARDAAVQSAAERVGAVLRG

For `Nc1ncnc2c1ncn2[C@@H]1O[C@H](COP(=O)(O)OP(=O)(O)OP(=O)(O)O)[C@@H](O)[C@H]1O` [ATP], the Km (Mtb PheRS [1]; read-out: apparent Km, PPi production assay) was 162 ± 11.6 µM, the Km (Mtb PheRS [2]) was 387 ± 279 µM and the “kcat, aminoacylation assay” value (Mtb PheRS [2]; substrate of Mtb PheRS) was 0.405 ± 0.417 s⁻¹.
`O=C(Nc1cccc(S(=O)(=O)NCCc2c[nH]c3ccccc23)c1)Nc1nccs1` [GDI05-001] gave an IC50 (Mtb PheRS [3]) of 1.72 ± 0.13 µM, an IC50 (Mtb PheRS [4]) of 0.87 ± 0.06 µM and an IC50 (Mtb PheRS [5]) of 0.52 ± 0.06 µM. It also gave an IC50 (hFARS1) greater than 200 µM, an IC50 (hFARS2) of 85.4 µM and an MIC (Mtb H37Rv) of 145 µM (≈ 64 µg/mL). The “Mode of inhibition with regard to Phe” value (Mtb PheRS [1]) was “Phe competitive inhibitors”, the “Mode of inhibition with regard to ATP” value (Mtb PheRS [1]) was “noncompetitive” and the IC50 (Mtb PheRS [6]) was 1.34 µM. It also gave a Ki (Mtb PheRS [6]; Ki in the Phe-competitive mode) of 0.2 ± 0.01 µM.
`O=C(Nc1cccnc1)N1CCC(Cc2cccc(Oc3ccc(C(F)(F)F)cn3)c2)CC1` [PF-3845] showed an IC50 (Mtb PheRS [3]) of 2.65 ± 0.19 µM, an IC50 (Mtb PheRS [4]) of 2.49 ± 0.19 µM and an IC50 (Mtb PheRS [5]) of 1.95 ± 0.19 µM. The IC50 (hFARS1) was greater than 200 µM, the “Inhibition of human cytoplasmic PheRS” value (hFARS1; concentrations up to 200 μM) was “does not inhibit” and the IC50 (hFARS2) was greater than 200 µM. The “Inhibition of human mitochondrial PheRS” value (hFARS2; concentrations up to 200 μM) was “does not inhibit”, the MIC (Mtb H37Rv) was roughly 24 µM (≈ 11 µg/mL) and the “MIC against Mtb H37Rv” value (Mtb H37Rv; n = 3) was roughly 23.87 µM (≈ 10.9 µg/mL). For the same compound, the MIC (WT H37Rv) was 220 µM (≈ 100 µg/mL), the CC50 (in vitro [7]; 48 h, CellTiter-Glo, read-out: CC50, HepG2) was 21.7 ± 1.53 µM and the CC50 (in vitro [8]; 48 h, CellTiter-Glo, read-out: CC50, HEK-293T) was 16.9 ± 1.54 µM. It also gave a CC50 (HEK-293T; CellTiter-Glo, read-out: CC50, HEK-293T) of 16.9 µM, a CC50 at 48 h [9] of 21.7 µM and a CC50 (in vitro [10]; human, African green monkey) of 16.9 to 25.8 µM. For the same compound, the CC50 (in vitro [10]; two human cell lines, preliminary result, read-out: CC50 against human cell lines (range)) was 16.9 to 21.7 µM, the “Inhibition of luciferase (Kinase-Glo coupled reaction)” value (luciferase) was “did not inhibit” and the “Inhibition of PPase and PNPase (PPi production coupled reaction)” value (PPase, PNPase) was “did not inhibit”. The “Mode of inhibition with regard to tRNAPhe” value (Mtb PheRS [1]) was “uncompetitive inhibitor; also recorded: uncompetitive inhibition mode”, the “Mode of inhibition with regard to ATP in the presence of sulfate” value (Mtb PheRS [1]; 5 mM (NH4)2SO4) was “competitive inhibition mode; also recorded: ATP competitive inhibitor” and the “Mode of inhibition with regard to Phe” value (Mtb PheRS [1]) was “Phe competitive inhibitors; also recorded: competitive inhibition mode”. For the same compound, the “Mode of inhibition with regard to ATP” value (Mtb PheRS [1]) was “mixed inhibition mode”, the IC50 (Mtb PheRS [6]) was 2.4 µM and the Ki (Mtb PheRS [6]; Ki in the Phe-competitive mode) was 1.7 ± 0.11 µM. For the same compound, the Ki (Mtb PheRS [6]; Ki with regard to ATP when SO4 2- was absent, mixed inhibition mode, no sulfate) was 1.08 ± 0.245 µM and the Ki (Mtb PheRS [6]; Ki with regard to ATP, competitive, with sulfate, 5 mM (NH4)2SO4 in the PheRS enzyme reaction) was ~0.73 µM and 0.73 µM.
`O=C(Nc1cccnn1)N1CCC(=Cc2cccc(Oc3ccc(C(F)(F)F)cn3)c2)CC1` [PF-04457845] showed an IC50 (Mtb PheRS [3]) of 9.76 ± 0.73 µM, an IC50 (Mtb PheRS [4]) of 10.1 ± 1.02 µM and an IC50 (Mtb PheRS [5]) of 11.7 ± 1.43 µM. For the same compound, the IC50 (hFARS1) was greater than 200 µM, the IC50 (hFARS2) was greater than 200 µM and the CC50 at 48 h (in vitro [7]; CC50, HepG2) was 25.8 ± 2.88 µM. The CC50 (HepG2) was 25.8 µM, the CC50 at 48 h (in vitro [8]; CC50, HEK-293T) was 23.6 ± 1.93 µM and the CC50 (HEK-293T; human) was 23.6 µM. The CC50 at 48 h (in vitro [10]; human) was 23.6 to 25.8 µM, the CC50 (in vitro [10]; human, African green monkey) was 16.9 to 25.8 µM and the “kinact/Ki for covalent inhibition of human FAAH” value (human FAAH) was 40,300 M^−1s^−1. The IC50 (Mtb PheRS [6]) was 12 µM.
In the case of `N[C@@H](Cc1ccccc1)C(=O)O` [Phe, phenylalanine], the Km (Mtb PheRS [2]) is reported as 68 ± 6.6 µM.
For (Mycobacterium tuberculosis H37Rv), the Km (N[C@@H](Cc1ccccc1)C(=O)O; pH 7.4) was 18.10 ± 2.44 µM.
For “Mtb PheRS (Mycobacterium tuberculosis H37Rv)”, the Km (N[C@@H](Cc1ccccc1)C(=O)O) was 68.0 ± 6.6 µM, the kcat (N[C@@H](Cc1ccccc1)C(=O)O) was 1.1 ± 0.0517 s⁻¹ and the kcat/Km (N[C@@H](Cc1ccccc1)C(=O)O) was 16200 M⁻¹ s⁻¹.
